Target: T1, pancreatic α-amylase (Sus scrofa, UniProt P00690)
T1 construct: gene AMY2
T1 sequence (P00690 16-511): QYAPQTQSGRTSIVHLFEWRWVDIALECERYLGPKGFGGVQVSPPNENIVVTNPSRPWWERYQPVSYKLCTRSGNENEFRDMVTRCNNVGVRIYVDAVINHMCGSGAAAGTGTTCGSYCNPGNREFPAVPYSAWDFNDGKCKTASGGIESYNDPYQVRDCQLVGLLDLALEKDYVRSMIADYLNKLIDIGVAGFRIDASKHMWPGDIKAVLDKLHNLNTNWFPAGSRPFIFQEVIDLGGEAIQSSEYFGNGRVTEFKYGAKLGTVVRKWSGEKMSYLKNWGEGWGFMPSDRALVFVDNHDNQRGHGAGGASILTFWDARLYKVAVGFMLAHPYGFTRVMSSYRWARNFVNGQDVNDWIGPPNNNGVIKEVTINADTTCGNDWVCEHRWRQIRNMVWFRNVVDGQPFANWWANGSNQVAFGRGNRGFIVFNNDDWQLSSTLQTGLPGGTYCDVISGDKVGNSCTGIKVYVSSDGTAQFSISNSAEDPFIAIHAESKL
Assay: starch hydrolysis inhibition assay with DNS readout at […] nm; Lineweaver-Burk kinetics
Type: biochemical

C[C@@H]1O[C@@H](OC[C@H]2O[C@@H](Oc3cc4c(O)cc(O)cc4[o+]c3-c3ccc(O)c(O)c3)[C@H](O)[C@@H](O)[C@@H]2O)[C@H](O)[C@H](O)[C@H]1O [C3R, Cyanidin-3-rutinoside]
IC50: 24.4 ± 0.1 µM

Source: PMC6259843 (Molecules, 2011)
